Laboratory results as given in patent US8603967B2, “Carrier peptide fragment and use thereof” (Toagosei Co., Ltd., priority 2009, dated 2013).

System: Human neonate fibroblasts (ATCC cell line CCD-1079sk)
Experiment: Evaluation of cell membrane permeability function (fluorescence antibody technique, confocal microscopy)
Assay type: cell-based
Conditions: 3.5 μg/mL in liquid culture medium, cultured 2 hours, FIG. 2
Description: Human neonate fibroblasts (ATCC cell line CCD-1079sk) were used as the eukaryotic cells, and the cell membrane permeability capability of the 2 samples (constructs for transferring a foreign substance) obtained in Example 1 above was investigated.
More specifically, approximately 2×10^4 cells were cultured on a collagen-coated S-well slide overnight at 37° C. in 5% CO2 using a liquid culture medium (Eagle's MEM medium: comprising 0.1 mM NeAA, 1 mM sodium pyruvate, Earle's BSS (product of GIBCO) with 10% FBS (product of GIBCO).
The purified polypeptides obtained above were added to the cell culture (1.5 μg/mL of the polypeptide of Sample No. 1 and 3.5 μg/mL of the polypeptide of Sample No. 2), and culturing was continued for another 2 hours.
Then the supernatant was removed, the abovementioned D-PBS was added, and the cells were rinsed 3 times therewith on ice. Next, ice-cold methanol was added and the samples were let stand for 10 min at −20° C. to fix the cells. Then the methanol was removed, PBS solution containing 5% normal goat serum (product of MBL) was added, and blocking was carried out at room temperature for 1 hour. […]

## Sample No. 2: Fusion polypeptide (SEQ ID NO: 7): Met, NoLS carrier KKRTLRKNDRKKR fused to N-terminal end of GFP, C-terminal polyhistidine tag
anti-GFP antibody staining merged with DAPI
  location of the polypeptide transferred into the cells (nuclear translocation): transferred (translocated) to the nucleus and localized therein
anti-GFP antibody staining
  transfer of the polypeptide into the cells: transfer of the polypeptide into the cells can be seen
